In PMC2964301, “Human α3β4 Neuronal Nicotinic Receptors Show Different Stoichiometry if They Are Expressed in Xenopus Oocytes or Mammalian HEK293 Cells” (PLoS ONE, 2010):

Columns and labels:
Assay type in all cases: cell-based
[1] = target: T1, human α3β4 nicotinic receptor in Xenopus oocytes, 1:9 α:β cRNA (putative two-α form) (Homo sapiens, UniProt P30926+P32297); test: two-electrode voltage clamp, extrapolated from low-concentration potency ratio; conditions: agonist, unreliable (extrapolated assuming identical efficacy to ACh)
T1 construct: gene CHRNA3; untagged; Xenopus laevis oocytes, 1:9 α:β cRNA; heteropentamer, putative (α3)2(β4)3
Target sequence in this assay (P30926 22-498): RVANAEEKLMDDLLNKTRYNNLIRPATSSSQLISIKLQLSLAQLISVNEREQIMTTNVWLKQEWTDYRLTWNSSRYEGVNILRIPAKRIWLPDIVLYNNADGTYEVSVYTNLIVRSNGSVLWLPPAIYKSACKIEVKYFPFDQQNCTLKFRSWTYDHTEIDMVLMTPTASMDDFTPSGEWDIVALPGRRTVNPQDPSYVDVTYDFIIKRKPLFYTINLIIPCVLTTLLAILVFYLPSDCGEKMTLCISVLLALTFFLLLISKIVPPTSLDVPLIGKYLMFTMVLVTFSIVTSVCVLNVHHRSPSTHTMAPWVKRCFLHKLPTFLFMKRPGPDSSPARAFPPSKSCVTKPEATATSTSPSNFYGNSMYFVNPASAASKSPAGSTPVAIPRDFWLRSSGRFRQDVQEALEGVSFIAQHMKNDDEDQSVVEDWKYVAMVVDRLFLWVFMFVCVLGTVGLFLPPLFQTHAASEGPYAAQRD
Target sequence in this assay (P32297 32-505): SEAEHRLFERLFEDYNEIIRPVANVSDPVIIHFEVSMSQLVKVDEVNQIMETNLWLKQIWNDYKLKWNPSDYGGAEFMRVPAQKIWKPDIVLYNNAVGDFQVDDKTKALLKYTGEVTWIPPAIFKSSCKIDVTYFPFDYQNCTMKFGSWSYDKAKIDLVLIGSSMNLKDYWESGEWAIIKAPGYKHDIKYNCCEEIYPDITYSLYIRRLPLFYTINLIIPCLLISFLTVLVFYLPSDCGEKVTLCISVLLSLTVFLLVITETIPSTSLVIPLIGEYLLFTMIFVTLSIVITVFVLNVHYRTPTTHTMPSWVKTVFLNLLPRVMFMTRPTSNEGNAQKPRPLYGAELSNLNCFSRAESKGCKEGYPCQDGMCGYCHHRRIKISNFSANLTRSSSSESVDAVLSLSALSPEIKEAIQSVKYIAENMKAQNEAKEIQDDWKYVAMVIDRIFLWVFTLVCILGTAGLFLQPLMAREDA

[2] = target: T2, human α3β4 nicotinic receptor in Xenopus oocytes, 9:1 α:β cRNA (putative three-α form) (Homo sapiens, UniProt P30926+P32297); test: as above; conditions: agonist, unreliable (extrapolated assuming identical efficacy to ACh)
T2 construct: gene CHRNA3; untagged; Xenopus laevis oocytes, 9:1 α:β cRNA; heteropentamer, putative (α3)3(β4)2

[3] = target: T1, human α3β4 nicotinic receptor in Xenopus oocytes, 1:9 α:β cRNA (putative two-α form); test: two-electrode voltage clamp, partial dose-response curves; conditions: agonist, -70 mV, pH 7.2, nominally Ca-free, 0.5 µM atropine, 18°C, low concentrations
From the text: two-electrode voltage clamp, partial dose-response curves on human α3β4 nicotinic receptor in Xenopus oocytes, 1:9 α:β cRNA (putative two-α form)

T2 sequence (P30926 22-498): as the sequence (P30926 22-498) above
T2 sequence (P32297 32-505): as the sequence (P32297 32-505) above

SMILES | EC 50 [1] | EC 50 [2] | Potency ratio [3]
C[N+]1(C)CCN(c2ccccc2)CC1 [DMPP, 1,1-dimethyl-4-phenylpiperazinium iodide] | ~ 140 µM | ~ 30 µM | –
C[N+](C)(C)CCOC(N)=O [carbachol] | – | – | 0.094±0.003
O=c1cccc2n1C[C@@H]1CNC[C@H]2C1 [cytisine] | – | – | 1.40±0.15
Clc1ccc(C2CC3CCC2N3)cn1 (stereo not shown) [epibatidine] | – | – | 6290±815
CN1[C@@H](CC(=O)c2ccccc2)CCC[C@H]1C[C@H](O)c1ccccc1 [lobeline] | – | – | 7.35±0.56
CN1CCC[C@H]1c1cccnc1 [nicotine] | – | – | 1.43±0.14
